Data from ChEMBL document CHEMBL3286119, “Biarylmethoxy Nicotinamides As Novel and Specific Inhibitors of Mycobacterium tuberculosis” (ACS Med Chem Lett, 2014).
Converted amounts (≈) assume the structure as drawn.

Tested on: Mycobacterium tuberculosis
Assay: Antimicrobial activity against Mycobacterium tuberculosis H37Rv ATCC 27294 after 5 days by microdilution method
Assay type: functional
Details: H37Rv ATCC 27294, 120 h

SMILES | MIC
NC(=O)c1cccnc1OCc1ccc(-c2ccccc2)cn1 | > 50 µM
Cc1cc(OC[C@@H]2CCCO2)ccc1-c1ccc(COc2ncccc2C(N)=O)nc1 | 1.2 µM (≈ 0.503 µg/mL)
Cn1ccnc1-c1ccc(COc2ncccc2C(N)=O)cc1 | > 100 µM
Cc1cc(OCCN2CCOCC2)ccc1-c1ccc(COc2ncccc2C(N)=O)nc1 | 8.9 µM (≈ 3.99 µg/mL)
COc1ccc(-c2ccc(COc3ncccc3C(N)=O)nc2)c(Cl)c1 | 5.4 µM (≈ 2 µg/mL)
COCCOc1ccc(-c2ccc(COc3ncccc3C(=O)NC3CCN(C)CC3)nc2)c(C)c1 | 8.1 µM (≈ 3.97 µg/mL)
COc1ccc(-c2ccc(COc3ncccc3C(N)=O)nc2)c(C)c1 | 22 µM (≈ 7.69 µg/mL)

Tested on: not listed separately
Assay: Cytotoxicity against human THP1 cells after 24 hrs by resazurin assay
Assay type: cell-based, THP-1
Details: read-out: MIC

SMILES | MCC at 24 h
Cc1cc(OC[C@@H]2CCCO2)ccc1-c1ccc(COc2ncccc2C(N)=O)nc1 | > 50 µM
Cn1ccnc1-c1ccc(COc2ncccc2C(N)=O)cc1 | > 50 µM
Cc1cc(OCCN2CCOCC2)ccc1-c1ccc(COc2ncccc2C(N)=O)nc1 | > 50 µM
COc1ccc(-c2ccc(COc3ncccc3C(N)=O)nc2)c(Cl)c1 | > 50 µM
COCCOc1ccc(-c2ccc(COc3ncccc3C(=O)NC3CCN(C)CC3)nc2)c(C)c1 | > 50 µM
COc1ccc(-c2ccc(COc3ncccc3C(N)=O)nc2)c(C)c1 | > 50 µM
